In brackets after ≈: the same amount, converted by molar mass.
Experiments:
[1] = tested on: Raw 264.7 cells infected with H37Rv-GFP; assay: microbe, parasite or virus in culture; assay type: cell-based, M. tuberculosis; settings: Mycobacterium tuberculosis, H37RV, 120 h; read-out: QIM (MIC50)
[2] = tested on: M. tuberculosis H37Rv expressing the green fluorescent protein (H37Rv-GFP); assay: microbe, parasite or virus in culture; assay type: cell-based; settings: Mycobacterium tuberculosis, H37RV, 120 h; read-out: QUM (MIC50)

SMILES | MIC50 [1] [µM] | melting point [°C] | MIC50 [2] [µM]
COc1ccc(NC(=O)c2cc3sc(N4CCC(C(=O)N(C)C)CC4)nc3s2)cc1 [Compound 127] | < 1 | 273.4 | < 1
COc1ccc(CCNC(=O)c2cc3nc(N4CCCCC4)sc3s2)cc1 [Compound 22] | 1 to 20 (≈ 0.402 to 8.03 µg/mL) | 188 | 1 to 20 (≈ 0.402 to 8.03 µg/mL)
O=C(Nc1ccc(C(F)(F)F)cc1)c1cc2nc(N3CCCCC3)sc2s1 [Compound 33] |  | 228.6 | > 20
COC(=O)c1ccc(N(C)C(=O)c2cc3nc(N4CCCCC4)sc3s2)cc1 [Compound 31] |  | 178.5 | > 20
Cc1nc2ccc(NC(=O)c3cc4nc(N5CCCCC5)sc4s3)cc2o1 [Compound 34] |  | 213 | > 20
COC(=O)C1CCC(NC(=O)c2cc3nc(N4CCCCC4)sc3s2)CC1 (centres unmarked) [Compound 30] |  | 191 | > 20
CN(C)C(=O)C1CCN(c2nc3sc(C(=O)Nc4ccc(-c5nn(C)cc5Cl)cc4)cc3s2)CC1 [Compound 276] | < 1 |  | > 20
CN(C)C(=O)C1CCN(c2nc3sc(C(=O)Nc4ccc(-c5ccc(F)cc5)nc4)cc3s2)CC1 [Compound 231] | < 1 |  | < 1
COc1ccc(NC(=O)c2cc3sc(N4CCC(O)CC4)nc3s2)cc1 [Compound 76] | < 1 |  | < 1
O=C(Nc1ccc(F)cn1)c1cc2sc(NCCN3CCOCC3)nc2s1 [Compound 335] | 1 to 20 (≈ 0.407 to 8.15 µg/mL) |  | 1 to 20 (≈ 0.407 to 8.15 µg/mL)
O=C(Nc1ccc(F)cc1)c1cc2sc(N3CCC(COc4ccc(Cl)cc4)CC3)nc2s1 [Compound 245] | < 1 |  | 1 to 20 (≈ 0.502 to 10 µg/mL)
O=C(Nc1ccc(F)cc1)c1cc2sc(NC3CCCNC3)nc2s1 (centres unmarked) [Compound 310] | > 20 |  | > 20
Cc1nc2cc(CNC(=O)c3cc4sc(N5CCOCC5)nc4s3)ccc2o1 [Compound 229] | 1 to 20 (≈ 0.415 to 8.29 µg/mL) |  | > 20
O=C(O)c1ccc(NC(=O)c2cc3nc(N4CCCCC4)sc3s2)cc1 [Compound 19] | > 20 |  | 1 to 20 (≈ 0.387 to 7.75 µg/mL)
CN(C)C(=O)[C@@H]1CCN(c2nc3sc(C(=O)Nc4ccc(F)cc4)cc3s2)C1 [Compound 309] | < 1 |  | 1 to 20 (≈ 0.419 to 8.37 µg/mL)
C#CCOc1ccc(-c2ccc(NC(=O)c3cc4sc(N(C)CCOC)nc4s3)cc2)cc1 [Compound 358] | < 1 |  | < 1
O=C(Nc1ccc(N2CCC(C(=O)c3ccc(Cl)cc3)CC2)cc1)c1cc2sc(N3CCOCC3)nc2s1 [Compound 226] | < 1 |  | > 20
CC(C)(C)CC(=O)NC1CCN(c2nc3sc(C(=O)Nc4ccc(-c5ccc(F)cn5)cc4)cc3s2)CC1 [Compound 349] | < 1 |  | > 20
CN1CCN(CCNc2nc3sc(C(=O)Nc4ccc(-c5ccc(F)cn5)cc4)cc3s2)CC1 [Compound 325] | < 1 |  | 1 to 20 (≈ 0.497 to 9.93 µg/mL)
Cc1nc2cc(NC(=O)c3sc4nc(N5CCOCC5)sc4c3OCc3ccccc3)ccc2o1 [Compound 185] | > 20 |  | > 20
CC1CCN(c2ccc(NC(=O)c3cc4sc(N5CCNCC5)nc4s3)cc2)CC1 [Compound 344] | < 1 |  | 1 to 20 (≈ 0.442 to 8.83 µg/mL)
CNC(=O)C1CCN(c2nc3sc(C(=O)Nc4ccc5oc(C)nc5c4)cc3s2)CC1 [Compound 212] | < 1 |  | 1 to 20 (≈ 0.456 to 9.11 µg/mL)

SMILES | MIC50 [1] [µM] | melting point [°C] | MIC50 [2] [µM]
Cc1nc2cc(NC(=O)c3cc4sc(N5CCOC(CO)C5)nc4s3)ccc2o1 (centres unmarked) [Compound 152] | 1 to 20 (≈ 0.431 to 8.61 µg/mL) |  | 1 to 20 (≈ 0.431 to 8.61 µg/mL)
COC(CN(C)c1nc2sc(C(=O)Nc3ccc4oc(C)nc4c3)cc2s1)C(F)(F)F (centres unmarked) [Compound 263] | > 20 |  | > 20
O=C(Nc1ccc(F)cc1)c1cc2sc(N3CCC(C(=O)c4ccc(Cl)cc4)CC3)nc2s1 [Compound 241] | < 1 |  | > 20
COc1ccc(NC(=O)c2cc3sc(N4CCC(C(=O)O)CC4)nc3s2)cc1 [Compound 149] | 1 to 20 (≈ 0.418 to 8.35 µg/mL) |  | 1 to 20 (≈ 0.418 to 8.35 µg/mL)
COCCN(c1nc2sc(C(=O)Nc3ccc4oc(C)nc4c3)cc2s1)C(C)C [Compound 242] | < 1 |  | 1 to 20 (≈ 0.431 to 8.61 µg/mL)
O=C(Nc1ccc(N2CCC(Oc3ccc(F)cc3)CC2)cc1)c1cc2sc(NCCN3CCOCC3)nc2s1 [Compound 295] | > 20 |  | > 20
Cc1nc2cc(NC(=O)c3cc4sc(N5CCC(N)CC5)nc4s3)ccc2o1 [Compound 234] | < 1 |  | 1 to 20 (≈ 0.414 to 8.27 µg/mL)
COCCNc1nc2sc(C(=O)Nc3ccc4oc(C)nc4c3)cc2s1 [Compound 266] | < 1 |  | < 1
O=C(Nc1ccc(-c2ccc(F)cn2)cc1)c1cc2sc(N3CCN4CCCC4C3)nc2s1 (centres unmarked) [Compound 324] | < 1 |  | < 1
Cc1nc2cc(NC(=O)c3cc4sc(NCCN5CCOCC5)nc4s3)ccc2o1 [Compound 224] | < 1 |  | 1 to 20 (≈ 0.444 to 8.87 µg/mL)
CC(C)(C)CC(=O)NC1CCN(c2nc3sc(C(=O)Nc4ccc(F)cc4)cc3s2)CC1 [Compound 304] | < 1 |  | > 20
Cc1nc2cc(NC(=O)c3cc4sc(N5CC(C(=O)N(C)C)C5)nc4s3)ccc2o1 [Compound 244] | < 1 |  | > 20
COCCN(C)c1nc2sc(C(=O)Nc3ccc(-c4ccc(F)nc4)cc3)cc2s1 [Compound 271] | < 1 |  | < 1
CN(C)C(=O)CC1CCN(c2nc3sc(C(=O)Nc4ccc(-c5ccc(F)nc5)cc4)cc3s2)C1 (centres unmarked) [Compound 350] | < 1 |  | < 1
COc1ccc(NC(=O)c2cc3sc(N4CCNCC4)nc3s2)cc1 [Compound 92] | 1 to 20 (≈ 0.374 to 7.49 µg/mL) |  | 1 to 20 (≈ 0.374 to 7.49 µg/mL)
COCCN(C)c1nc2sc(C(=O)Nc3ccc(-c4ccc(C)cn4)cc3)cc2s1 [Compound 262] | < 1 |  | < 1
Cc1nc2cc(NC(=O)c3cc4sc(N5CCC(CC(=O)N(C)C)CC5)nc4s3)ccc2o1 [Compound 307] | < 1 |  | < 1
Cc1nc2cc(NC(=O)c3cc4sc(N(C)CCCO)nc4s3)ccc2o1 [Compound 238] | < 1 |  | 1 to 20 (≈ 0.403 to 8.05 µg/mL)
CN(C)C(=O)C1CCN(c2nc3sc(C(=O)Nc4ccc5oc(-c6ccc(Cl)cc6)nc5c4)cc3s2)CC1 [Compound 214] | < 1 |  | > 20
O=C(O)c1ccc(NC(=O)c2cc3sc(N4CCCCC4)nc3s2)cc1 [Compound 51] | 1 to 20 (≈ 0.387 to 7.75 µg/mL) |  | 1 to 20 (≈ 0.387 to 7.75 µg/mL)
COc1ccc(Cn2cc(F)c(-c3ccc(NC(=O)c4cc5sc(N6CCOCC6)nc5s4)cc3)n2)cc1 [Compound 158] | < 1 |  | 1 to 20 (≈ 0.55 to 11 µg/mL)
Cc1nc2cc(NC(=O)c3cc4sc(N(CCO)C(C)C)nc4s3)ccc2o1 [Compound 232] | < 1 |  | 1 to 20 (≈ 0.417 to 8.33 µg/mL)

SMILES | MIC50 [1] [µM] | melting point [°C] | MIC50 [2] [µM]
O=C(Nc1ccc(F)cc1)c1cc2sc(NC3CCN(Cc4ccc(F)cc4)CC3)nc2s1 [Compound 314] | < 1 |  | < 1
Cc1nc2cc(NC(=O)c3cc4sc(NC5CCOCC5)nc4s3)ccc2o1 [Compound 299] | < 1 |  | < 1
COc1ccc(-c2ccc(NC(=O)c3cc4sc(N5CCC(C(=O)N(C)C)CC5)nc4s3)cc2)cn1 [Compound 213] | < 1 |  | < 1
CN(CCO)c1nc2sc(C(=O)Nc3ccc(-c4ccn(C)n4)cc3)cc2s1 [Compound 275] | < 1 |  | 1 to 20 (≈ 0.414 to 8.27 µg/mL)
Cc1nc2cc(NC(=O)c3cc4sc(N5CCC(C(O)c6ccc(Cl)cc6)CC5)nc4s3)ccc2o1 (centres unmarked) [Compound 206] | < 1 |  | > 20
O=C(Nc1ccc(-c2ccc(F)nc2)cc1)c1cc2sc(NCC(O)C(F)(F)F)nc2s1 (centres unmarked) [Compound 341] | < 1 |  | 1 to 20 (≈ 0.482 to 9.65 µg/mL)
CN(CCO)c1nc2sc(C(=O)Nc3ccc(N4CCC(Oc5ccc(F)cc5)CC4)cc3)cc2s1 [Compound 250] | < 1 |  | > 20
COCCN(C)c1nc2sc(C(=O)Nc3ccc(-c4ccc(OC)nc4)cc3)cc2s1 [Compound 265] | < 1 |  | < 1
Cc1nc2cc(NC(=O)c3cc4sc(N5CCN(C(=O)N(C)C)CC5)nc4s3)ccc2o1 [Compound 237] | < 1 |  | < 1
Cn1ccc(-c2ccc(NC(=O)c3cc4sc(N5CCNCC5)nc4s3)cc2)n1 [Compound 343] | < 1 |  | 1 to 20 (≈ 0.425 to 8.49 µg/mL)
CN(CC(O)C(F)(F)F)c1nc2sc(C(=O)Nc3ccc(F)cc3)cc2s1 (centres unmarked) [Compound 316] | < 1 |  | 1 to 20 (≈ 0.419 to 8.39 µg/mL)
O=C(Nc1ccc(-c2ccc(F)nc2)cc1)c1cc2sc(N3CCN(CCO)CC3)nc2s1 [Compound 337] | < 1 |  | < 1
CN(CCO)c1nc2sc(C(=O)Nc3ccc(-c4ccc(F)nc4)cc3)cc2s1 [Compound 272] | < 1 |  | < 1
O=C(Nc1ccc(Oc2ccc(Cl)cc2)cc1)c1cc2sc(N3CCNCC3)nc2s1 [Compound 345] | < 1 |  | 1 to 20 (≈ 0.471 to 9.42 µg/mL)
Cc1ccc(-c2ccc(NC(=O)c3cc4sc(N(C)C)nc4s3)cc2)cn1 [Compound 240] | < 1 |  | > 20
CN(CCO)c1nc2sc(C(=O)Nc3ccc4oc(Cc5ccc(F)cc5)nc4c3)cc2s1 [Compound 251] | < 1 |  | 1 to 20 (≈ 0.483 to 9.65 µg/mL)
COCCN(c1nc2sc(C(=O)Nc3ccc4oc(C)nc4c3)cc2s1)C1CC1 [Compound 270] | > 20 |  | > 20
Cc1nc2cc(NC(=O)c3cc4sc(NCCN5CCN(C)CC5)nc4s3)ccc2o1 [Compound 326] | > 20 |  | > 20
O=C(Nc1ccc(-c2ccc(F)nc2)cc1)c1cc2sc(N3CCN4CCCC4C3)nc2s1 (centres unmarked) [Compound 338] | < 1 |  | < 1
Cc1nc2cc(NC(=O)c3cc4sc(N(CCO)C5CCCCC5)nc4s3)ccc2o1 [Compound 227] | > 20 |  | 1 to 20 (≈ 0.457 to 9.13 µg/mL)
COc1ccc(NC(=O)c2cc3nc(N4CCOCC4)sc3s2)cc1 [Compound 27] | 1 to 20 (≈ 0.375 to 7.51 µg/mL) |  | > 20
COc1ccc(-c2ccc(NC(=O)c3cc4sc(NCCN5CCOCC5)nc4s3)cc2)cn1 [Compound 292] | < 1 |  | 1 to 20 (≈ 0.496 to 9.91 µg/mL)

From patent publication US11279714B2, “Anti-infective compounds” (priority 2014, dated 2022)
